Measurements: US20090124619A1, “NOVEL COMPOUNDS” (priority 2005, published 2009)

biological target: T1, TRPV4 channel receptors (Bos taurus, UniProt A0A8F4X677); test: Ca2+ influx, Fura-2 fluorescence on FlexStation in bovine articular chondrocytes; format: cell-based; settings: not given
T1 construct: obtained using this method in bovine articular chondrocytes; endogenous in cells; host or cells: bovine articular chondrocytes (primary)
Source text: Ca^2+ influx mediated through TRPV4 channel receptors can be measured using articular chondrocytes from such species as, but not limited to, human, rat, canine, rabbit, monkey, and bovine, using standard techniques in the art such as, but not limited to, Fura-2 (Invitrogen/Molecular Probes, Eugene, Oreg.) fluorescence using a FlexStation (manufactured by Molecular Devices, Sunnyvale, Calif.). Table 1 lists biological data for several representative compounds obtained using this method in bovine articular chondrocytes.
(§1) All exemplary compounds of the present invention were assessed using at least one of the biological assays presented above. Compounds presented in the Examples had EC50 values of about 0.01 μM to 30 μM as measured by Flex Station using bovine articular chondrocytes and pEC50 values between about 5.0 to about 7.5 as measured by FLIPR assay using TRPV4 expressing HEK cells.

T1 sequence (A0A8F4X677 1-871): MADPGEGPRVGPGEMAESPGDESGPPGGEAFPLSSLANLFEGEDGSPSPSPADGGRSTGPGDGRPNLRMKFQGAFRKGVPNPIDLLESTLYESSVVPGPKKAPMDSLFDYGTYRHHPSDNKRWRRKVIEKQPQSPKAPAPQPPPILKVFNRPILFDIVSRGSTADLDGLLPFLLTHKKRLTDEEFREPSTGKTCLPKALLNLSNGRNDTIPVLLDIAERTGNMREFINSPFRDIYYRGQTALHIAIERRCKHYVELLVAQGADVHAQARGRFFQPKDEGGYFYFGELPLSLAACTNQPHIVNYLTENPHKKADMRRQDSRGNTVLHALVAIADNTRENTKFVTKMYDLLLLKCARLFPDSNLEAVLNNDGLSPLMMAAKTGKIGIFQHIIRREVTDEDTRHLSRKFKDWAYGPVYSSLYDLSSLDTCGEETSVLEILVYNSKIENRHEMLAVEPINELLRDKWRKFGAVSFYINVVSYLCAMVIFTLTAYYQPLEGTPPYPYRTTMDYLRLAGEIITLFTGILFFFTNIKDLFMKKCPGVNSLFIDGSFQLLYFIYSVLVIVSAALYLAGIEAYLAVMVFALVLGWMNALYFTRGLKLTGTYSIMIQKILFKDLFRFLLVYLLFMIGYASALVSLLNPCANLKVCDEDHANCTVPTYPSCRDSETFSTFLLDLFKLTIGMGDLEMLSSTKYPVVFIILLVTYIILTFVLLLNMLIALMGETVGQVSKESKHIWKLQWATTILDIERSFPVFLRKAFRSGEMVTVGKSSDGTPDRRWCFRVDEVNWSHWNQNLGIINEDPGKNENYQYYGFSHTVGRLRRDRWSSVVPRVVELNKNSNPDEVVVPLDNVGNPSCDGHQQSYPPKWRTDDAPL

EC50 [nM]	SMILES
> 900	CC[C@H](C)[C@H](NC(=O)c1cc2ccccc2s1)C(=O)NCC1CN(S(=O)(=O)c2ccccc2C#N)CCO1 (stereo partly drawn) [Example 18, N-((1S,2S)-1-{[({4-[(2-cyanophenyl)sulfonyl]-2-morpholinyl}methyl)amino]carbonyl}-2-methylbutyl)-1-benzothiophene-2-carboxamide]
1 to 160	CC(C)C[C@H](NC(=O)c1cc2ccccc2s1)C(=O)NC[C@@H]1CN(S(=O)(=O)c2ccccc2C#N)CCO1 [Example 21, N-((1S)-1-{[({(2R)-4-[(2-cyanophenyl)sulfonyl]-2-morpholinyl}methyl)amino]carbonyl}-3-methylbutyl)-1-benzothiophene-2-carboxamide]
160 to 900	CC(C)C[C@H](NC(=O)c1cc2ccccc2s1)C(=O)NC[C@H]1CN(S(=O)(=O)c2ccccc2C#N)CCO1 [Example 24, N-((1S)-1-{[({(2S)-4-[(2-cyanophenyl)sulfonyl]-2-morpholinyl}methyl)amino]carbonyl}-3-methylbutyl)-1-benzothiophene-2-carboxamide]

biological target: T2, TRPV4 (Homo sapiens, UniProt Q9HBA0); test: FLIPR assay using TRPV4 expressing HEK cells; format: cell-based; settings: FLIPR method; pEC50 = −log10(EC50 μM)
T2 construct: expressed in transfected cells; host or cells: HEK cells
Source text: Other techniques used to measure TRPV4 channel receptor activation in chondrocytes include, but are not limited to: FLIPR assay, measuring a compound's capability to reduce the amount of ADAMTSs produced and/or released in response to a catabolic stimulus by a cell comprising a TRPV4 channel receptor; measuring a compound's capability to reduce the amount of MMPs produced and/or released in response to a catabolic stimulus by a cell comprising a TRPV4 channel receptor; measuring a compound's capability to effect the amount of nitric oxide (NO) produced in response to a catabolic stimulus by a cell comprising a TRPV4 channel receptor; and measuring a compound's capability to attenuate the inhibition of matrix synthesis in response to a catabolic stimulus by a cell comprising a TRPV4 channel receptor.
as §1

T2 sequence (Q9HBA0 whole entry): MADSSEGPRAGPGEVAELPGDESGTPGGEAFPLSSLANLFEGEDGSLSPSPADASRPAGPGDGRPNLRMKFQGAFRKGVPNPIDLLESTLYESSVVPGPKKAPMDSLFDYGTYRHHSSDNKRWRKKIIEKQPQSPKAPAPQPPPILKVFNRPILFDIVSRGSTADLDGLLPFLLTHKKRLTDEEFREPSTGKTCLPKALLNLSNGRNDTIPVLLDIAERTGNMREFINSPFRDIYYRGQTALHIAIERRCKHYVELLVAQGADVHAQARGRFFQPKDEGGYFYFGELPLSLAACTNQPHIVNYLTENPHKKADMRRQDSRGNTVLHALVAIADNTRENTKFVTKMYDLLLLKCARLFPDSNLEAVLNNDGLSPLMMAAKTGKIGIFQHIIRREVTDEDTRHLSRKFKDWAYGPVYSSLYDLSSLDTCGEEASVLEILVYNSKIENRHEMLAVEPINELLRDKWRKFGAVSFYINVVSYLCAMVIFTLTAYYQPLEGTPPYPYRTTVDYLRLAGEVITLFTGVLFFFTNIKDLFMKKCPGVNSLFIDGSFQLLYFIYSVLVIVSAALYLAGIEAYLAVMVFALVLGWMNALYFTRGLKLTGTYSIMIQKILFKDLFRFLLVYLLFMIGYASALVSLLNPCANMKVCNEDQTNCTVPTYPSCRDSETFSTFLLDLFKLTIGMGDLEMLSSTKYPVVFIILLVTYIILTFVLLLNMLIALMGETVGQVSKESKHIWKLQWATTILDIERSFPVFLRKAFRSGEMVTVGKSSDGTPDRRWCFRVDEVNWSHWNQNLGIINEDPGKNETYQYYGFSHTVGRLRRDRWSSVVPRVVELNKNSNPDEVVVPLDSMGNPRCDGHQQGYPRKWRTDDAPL

EC50 [µM]	SMILES
≤ 0.1	CC(C)C[C@H](NC(=O)c1cc2ccccc2s1)C(=O)NCC1CN(S(=O)(=O)c2ccc(Cl)cc2Cl)CCO1 (stereo partly drawn) [Example 14, N-((1S)-1-{[({4-[(2,4-dichlorophenyl)sulfonyl]-2-morpholinyl}methyl)amino]carbonyl}-3-methylbutyl)-1-benzothiophene-2-carboxamide]
0.1 to 1.12	CC(C)[C@H](NC(=O)CCC1CCCC1)C(=O)NCC1CN(S(=O)(=O)c2ccccc2C#N)CCO1 (stereo partly drawn) [Example 44, N1-({4-[(2-cyanophenyl)sulfonyl]-2-morpholinyl}methyl)-N2-(3-cyclopentylpropanoyl)-L-valinamide]
1.12 to 10	O=C(CCC1CCCC1)N[C@H](C(=O)NCC1CN(S(=O)(=O)c2ccc(Cl)cc2Cl)CCO1)c1ccccc1 (stereo partly drawn) [Example 60, 3-cyclopentyl-N-{(1S)-2-[({4-[(2,4-dichlorophenyl)sulfonyl]-2-morpholinyl}methyl)amino]-2-oxo-1-phenylethyl}propanamide]
